Where “and” joins values, the source holds several entries; their conditions need not be identical. Equal values may be shown once. Read-outs that look alike come from different tables or passages of the source.
Assay: Tissue distribution of SHR9146 in mice after oral gavage of 40 mg/kg
Type: in vivo, ICR mice
Conditions: male, 40 mg/kg oral gavage; for concentration at 1 h / concentration at 3 h / concentration at 6 h: ICR, mouse, po
Method: ICR mice with body weight 16–26 g were supplied by Shanghai Lingchang Biotechnology Co., Ltd. (animal breeding license number SCXK (Shanghai) 2013-0018) and housed at Shanghai Institute of Materia Medica, Chinese Academy of Sciences [animal use license number SYXK (Shanghai) 2015-0027]. The mice used in this study were fasted overnight for 12 h but had free access to water. Food was supplied 4 h post-dose. All experiments in this study were conducted in accordance with the Guidelines for the Care and Use of Laboratory Animals of Shanghai Institute of Materia Medica, Chinese Academy of Sciences.
Another set of 30 mice were randomly assigned into five groups with equal numbers, males and females, for tissue distribution study with oral gavage at a single dose of 40 mg/kg at predetermined different time points: pre-dose and post dose at 1, 3, 6, and 24 h, respectively. The whole brain, heart, liver, spleen, lung, kidney, bladder, pancreas, testis, ovary, uterus, stomach, small intestine, adrenal gland, skin, skeletal muscle, thyroid gland, and abdominal fat tissues as well as the whole blood and plasma samples were harvested. Tissue samples were washed with 0.9% sodium chloride solution to remove the residual blood or contents, blotted on a filter paper, and stored at −70°C prior to the analysis.
Protein precipitation was selected for the pretreatment of both the plasma and the tissue homogenate prepared after thawing at room temperature, cut into pieces, and homogenized with a quintuple methanol–water mixture (1:1, v/v) for each tissue sample.
Briefly as follows, an aliquot of 25-μL plasma or tissue homogenate was spiked with 100 μL of internal standard solution (1 μg/mL for plasma, 0.2 μg/mL for tissue homogenate) and 300 μL of methanol added and vortex mixed for 60 s. The mixture was then centrifuged at 14,000 rpm at 4°C for 5.0 min, and the supernatant was diluted with methanol–water (4:1, v/v) in a ratio of 1:9 for the plasma or 1:1 for the tissue homogenate, and 5 μL of the resulting solution was injected for the LC-MS/MS analysis.
After oral administration of 40 mg/kg SHR9146, samples in different tissues at predetermined time points (pre-drug administration, post-drug administration at 1, 3, 6, and 24 h) were collected and prepared for the analysis. The drug concentrations of SHR9146 (μg/g or μg/mL) were determined for each mouse, and the mean and standard deviation were further obtained (Table S7).

[1] = 24 h, individual mice, 40 mg/kg

SHR9146 concentration in Pancreas (1 h, individual mice, 40 mg/kg): 15.265 µg/g and 8.681 µg/g
SHR9146 concentration in Plasma (1 h, individual mice, 40 mg/kg): 11.481 µg/mL and 5.761 µg/mL
SHR9146 concentration in Small intestine (1 h, individual mice, 40 mg/kg): 24.690 µg/g and 24.120 µg/g
SHR9146 concentration in Bladder (3 h, individual mice, 40 mg/kg): 0.390 µg/g and 6.162 µg/g and 6.598 µg/g
SHR9146 concentration in Brain (3 h, individual mice, 40 mg/kg): BLQ
SHR9146 concentration in Kidney (3 h, individual mice, 40 mg/kg): 0.314 µg/g and 6.873 µg/g and 7.165 µg/g
SHR9146 concentration in Lung (3 h, individual mice, 40 mg/kg): 0.798 µg/g and 7.286 µg/g and 7.382 µg/g
SHR9146 concentration in Pancreas (3 h, individual mice, 40 mg/kg): 0.231 µg/g and 7.160 µg/g and 7.228 µg/g
SHR9146 concentration in Brain (6 h, individual mice): BLQ
SHR9146 concentration in Abdominal fat (6 h, individual mice, 40 mg/kg): BLQ
SHR9146 concentration in Adrenal gland (6 h, individual mice, 40 mg/kg): BLQ and 0.313 μg/g
SHR9146 concentration in Bladder (6 h, individual mice, 40 mg/kg): BLQ and 0.199 μg/g
SHR9146 concentration in Heart (6 h, individual mice, 40 mg/kg): BLQ
SHR9146 concentration in Kidney (6 h, individual mice, 40 mg/kg): 0.159 µg/g and 0.129 µg/g and 0.344 µg/g
SHR9146 concentration in Liver (6 h, individual mice, 40 mg/kg): 0.702 µg/g and 0.351 µg/g and 0.845 µg/g
SHR9146 concentration in Lung (6 h, individual mice, 40 mg/kg): 0.510 µg/g and 0.701 µg/g
SHR9146 concentration in Pancreas (6 h, individual mice, 40 mg/kg): BLQ and 0.127 μg/g
SHR9146 concentration in Plasma (6 h, individual mice, 40 mg/kg): BLQ
SHR9146 concentration in Skeletal muscle (6 h, individual mice, 40 mg/kg): BLQ
SHR9146 concentration in Small intestine (6 h, individual mice, 40 mg/kg): BLQ and 0.152 μg/g
SHR9146 concentration in Spleen (6 h, individual mice, 40 mg/kg): BLQ
SHR9146 concentration in Whole blood (6 h, individual mice, 40 mg/kg): BLQ
SHR9146 concentration in thyroid gland (6 h, individual mice, 40 mg/kg): BLQ
SHR9146 concentration in Abdominal fat (24 h, individual mice): BLQ
SHR9146 concentration in Adrenal gland (24 h, individual mice): BLQ
SHR9146 concentration in Bladder (24 h, individual mice): BLQ
SHR9146 concentration in Brain (24 h, individual mice): BLQ
SHR9146 concentration in Heart (24 h, individual mice): BLQ
SHR9146 concentration in Pancreas (24 h, individual mice): BLQ
SHR9146 concentration in Plasma (24 h, individual mice): BLQ
SHR9146 concentration in Skeletal muscle (24 h, individual mice): BLQ
SHR9146 concentration in Small intestine (24 h, individual mice): BLQ
SHR9146 concentration in Spleen (24 h, individual mice): BLQ
SHR9146 concentration in Testis (24 h, individual mice): BLQ
SHR9146 concentration in Whole blood (24 h, individual mice): BLQ
SHR9146 concentration in thyroid gland (24 h, individual mice): BLQ
SHR9146 concentration in Kidney [1]: BLQ
SHR9146 concentration in Liver [1]: BLQ
SHR9146 concentration in Lung [1]: 0.064 µg/g and 0.105 µg/g
SHR9146 concentration in Skin [1]: BLQ
concentration at 1 h (abdominal fat, 40 mg/kg, 1 h, Mean (n=3), read-out: SHR9146 concentration in Abdominal fat): 7200 ng/g
concentration at 3 h (abdominal fat, 40 mg/kg, 3 h, Mean (n=3), read-out: SHR9146 concentration in Abdominal fat): 4070 ng/g
concentration at 6 h (abdominal fat, 40 mg/kg, 6 h, Mean (n=3), read-out: SHR9146 concentration in Abdominal fat): 75 ng/g
concentration at 1 h (adrenal gland, 40 mg/kg, 1 h, Mean (n=3), read-out: SHR9146 concentration in Adrenal gland): 23600 ng/g
concentration at 1 h (adrenal gland, 40 mg/kg, 1 h, individual mice, read-out: SHR9146 concentration in Adrenal gland): 24100 ng/g
concentration at 3 h (adrenal gland, 40 mg/kg, 3 h, Mean (n=3), read-out: SHR9146 concentration in Adrenal gland): 8450 ng/g
concentration at 6 h (adrenal gland, 40 mg/kg, 6 h, Mean (n=3), read-out: SHR9146 concentration in Adrenal gland): 163 ng/g
concentration at 6 h (adrenal gland, 40 mg/kg, 6 h, individual mice, read-out: SHR9146 concentration in Adrenal gland): 177 ng/g
concentration at 1 h (bladder, 40 mg/kg, 1 h, Mean (n=3), read-out: SHR9146 concentration in Bladder): 12400 ng/g
concentration at 1 h (bladder, 40 mg/kg, 1 h, individual mice, read-out: SHR9146 concentration in Bladder): 12500 ng/g
concentration at 3 h (bladder, 40 mg/kg, 3 h, Mean (n=3), read-out: SHR9146 concentration in Bladder): 4380 ng/g
concentration at 6 h (bladder, 40 mg/kg, 6 h, Mean (n=3), read-out: SHR9146 concentration in Bladder): 163 ng/g
concentration at 6 h (bladder, 40 mg/kg, 6 h, individual mice, read-out: SHR9146 concentration in Bladder): 291 ng/g
concentration at 1 h (brain, 40 mg/kg, 1 h, Mean (n=3), read-out: SHR9146 concentration in Brain): 1890 ng/g
concentration at 1 h (brain, 40 mg/kg, 1 h, individual mice, read-out: SHR9146 concentration in Brain): 2280 ng/g
concentration at 3 h (brain, 40 mg/kg, 3 h, Mean (n=3), read-out: SHR9146 concentration in Brain): 666 ng/g
concentration at 3 h (brain, 40 mg/kg, 3 h, individual mice, read-out: SHR9146 concentration in Brain): 1020 ng/g
concentration at 1 h (heart, 40 mg/kg, 1 h, Mean (n=3), read-out: SHR9146 concentration in Heart): 7320 ng/g
concentration at 1 h (heart, 40 mg/kg, 1 h, individual mice, read-out: SHR9146 concentration in Heart): 8420 ng/g
concentration at 3 h (heart, 40 mg/kg, 3 h, Mean (n=3), read-out: SHR9146 concentration in Heart): 2660 ng/g
concentration at 6 h (heart, 40 mg/kg, 6 h, Mean (n=3), read-out: SHR9146 concentration in Heart): 48 ng/g
concentration at 6 h (heart, 40 mg/kg, 6 h, individual mice, read-out: SHR9146 concentration in Heart): 61 ng/g
concentration at 1 h (kidney, 40 mg/kg, 1 h, Mean (n=3), read-out: SHR9146 concentration in Kidney): 11900 ng/g
concentration at 1 h (kidney, 40 mg/kg, 1 h, individual mice, read-out: SHR9146 concentration in Kidney): 12300 ng/g
concentration at 3 h (kidney, 40 mg/kg, 3 h, Mean (n=3), read-out: SHR9146 concentration in Kidney): 4780 ng/g
Structure (SMILES): OCCn1cc(-c2ccc(N3CCC([C@H]4c5c(F)cccc5-c5cncn54)CC3)cc2)cn1 [SHR9146]
SHR9146 concentration in Liver (3 h, individual mice, 40 mg/kg): 1.367 µg/g and 13.792 µg/g and 13.853 µg/g
SHR9146 concentration in Small intestine (3 h, individual mice, 40 mg/kg): 0.411 µg/g and 11.992 µg/g and 8.326 µg/g

Reference: publication PMC10410440, “Preclinical PK investigation of a novel IDO1/TDO dual inhibitor—SHR9146 in mouse plasma and tissues by LC-MS/MS” (Frontiers in Oncology, 2023)
